Measured values from patent US20060100187A1, “Synergistic combinations of macrolide t-cell modulator or immunosuppressant and a retinoid” (priority 2003, published 2006).

Legend:
[1] = test system: allogeneic kidney transplantation; conditions: oral administration; cited from earlier work
[2] = test system: DNFB-elicited allergic contact dermatitis (contact hypersensitivity reaction); conditions: for Efficacy, global mean of differences in scores of untreated and treated test sites: erythema and induration scored 24 hours after DNFB challenge, 80 mg formulation topically at 30 minutes and 6 hours after challenge, 1% Elidel cream, 0.1% Zorac gel; for Efficacy %, single drug treatment with pimecrolimus set to 100%: relative to pimecrolimus/pimecrolimus, topical at 30 minutes and 6 hours after challenge, scored at 24 hours
Method: 12 days before elicitation of ACD, 17 male domestic pigs receive 500 μl of 10% 2,4-dinitrofluorobenzene (DNFB) dissolved in dimethylsulfoxide/acetone/olive oil (1:5:3 v/v/v) epicutaneously in divided volumes onto the base of both ears and onto both groins (100 μl/site) for sensitization. The challenge reaction is elicited with 15 μl of DNFB 1.0% on test sites (7 cm^2 in size) arranged on both sides of the shaved dorsolateral back.
The test sites on the right dorsolateral side are treated with 80 mg formulation twice whereas the left controlateral test sites remain untreated for comparison. The test sites are treated 30 minutes after challenge, followed by the second application at 6 hours of the same drug or, in case of combination, the other drug.

C=CC[C@@H]1/C=C(\C)C[C@H](C)C[C@H](OC)[C@H]2O[C@@](O)(C(=O)C(=O)N3CCCC[C@H]3C(=O)O[C@H](/C(C)=C/[C@@H]3CC[C@@H](O)[C@H](OC)C3)[C@H](C)[C@@H](O)CC1=O)[C@H](C)C[C@@H]2OC [tacrolimus]
minimum effective dose (MED) [1]: 14 mg/kg

CCOC(=O)c1ccc(C#Cc2ccc3c(c2)C(C)(C)CCS3)nc1 [tazarotene]
Efficacy, global mean of differences in scores of untreated and treated test sites [2]: 2.96
Efficacy %, single drug treatment with pimecrolimus set to 100% [2]: 89%

{[1E-(1R,3R,4S)]}1R,9S,12S, 13R,14S,17R,18E,21S,23S,24R,25S,27R}-12-[2-(4-chloro-3-methoxycyclohexyl)-1-methylvinyl]-17-ethyl-1,14-dihydroxy-23,25-dimethoxy-13,19,21,27-tetramethyl-11, 28,dioxa-4-azatricyclo [22.3.1.0(4,9)]octacos-18-ene-2,3,10,16-tetraone [pimecrolimus]
superiority in comparison with tazarotene/tazarotene treatment ([2]; difference of relative efficacy %): 11%
Efficacy, global mean of differences in scores of untreated and treated test sites [2]: 3.34
Efficacy %, single drug treatment with pimecrolimus set to 100% [2]: 100%
inhibition of the contact hypersensitivity reaction ([2]; single drug treatment, two topical applications, scored 24 hours after challenge): 57%
